Laboratory results as given in patent US8802849B2, “Tricyclic benzo[4,5]thieno-[2,3-d]pyrimidine-4-yl-amin derivatives, their salts, process for producing the compounds and their pharmaceutical use” (Vichem Chemie Kutató Kft., priority 2008, dated 2014).

Experiments:
ROCK2 = ROCK2 (Homo sapiens, UniProt O75116); assay: ROCK2 kinase assay; type: biochemical; conditions: 10 μM compound; read-out: ROCK2 percent of inhibition
Protocol: (§1) General description of the kinase assays: the kinase activity was assayed in 96-well microtiter plates at a final compound concentration of 10 μM in a total volume of 50 μl. Compounds were dissolved in 100% DMSO to prepare a 10 mM stock solution and than diluted with buffer to reach a 10 μM (or the required) final concentration. The kinase concentration was used to yield 10% ATP turn over. The ATP concentration was used at the KmATP and 12.5 μCi/ml adenosine 5′[γ-33P]triphosphate. The substrate concentration was used at 5 fold excess over the Km for the substrate. The reaction was incubated for 1 hour at room temperature and stopped by addition of 10 μl 50 mM EDTA. The assay was transferred to a 96 well MAPH filter plate (Millipore). The radioactivity was counted on a Microbeta microplate counter.

InsR = InsR (Homo sapiens, UniProt P06213); assay: InsR kinase assay; type: biochemical; conditions: 10 μM compound; read-out: InsR percent of inhibition
Protocol: as §1

CDK2/CycA = CDK2/CycA (Homo sapiens, UniProt P24941); assay: CDK2/CycA kinase assay; type: biochemical; conditions: 10 μM compound; read-out: CDK2/CycA percent of inhibition
Protocol: as §1

MAPK-ERK1 = MAPK-ERK1 (Homo sapiens, UniProt P27361); assay: MAPK-ERK1 kinase assay; type: biochemical; conditions: 10 μM compound; read-out: MAPK-ERK1 percent of inhibition
MAPK-ERK1, sequence (P27361 whole entry): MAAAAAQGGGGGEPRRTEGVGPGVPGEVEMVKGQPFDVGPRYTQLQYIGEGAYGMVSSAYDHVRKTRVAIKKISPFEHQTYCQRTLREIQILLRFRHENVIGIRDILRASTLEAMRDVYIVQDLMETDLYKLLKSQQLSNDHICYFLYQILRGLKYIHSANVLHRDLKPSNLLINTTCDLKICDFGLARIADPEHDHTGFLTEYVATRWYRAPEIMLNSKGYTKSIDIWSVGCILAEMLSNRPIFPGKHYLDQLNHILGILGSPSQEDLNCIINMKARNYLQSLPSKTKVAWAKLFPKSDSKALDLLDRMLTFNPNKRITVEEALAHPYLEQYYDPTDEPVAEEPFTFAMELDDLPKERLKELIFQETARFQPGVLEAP
Protocol: as §1

SRPK1 = SRPK1 (Homo sapiens, UniProt Q96SB4); assay: SRPK1 kinase assay; type: biochemical; conditions: 10 μM compound; read-out: SRPK1 percent of inhibition
Protocol: as §1

EGFR = EGFR (Homo sapiens, UniProt P00533); assay: EGFR kinase assay (33P-ATP filter plate); type: biochemical; conditions: 10 μM compound; read-out: EGFR percent of inhibition
EGFR, sequence (P00533 25-1210): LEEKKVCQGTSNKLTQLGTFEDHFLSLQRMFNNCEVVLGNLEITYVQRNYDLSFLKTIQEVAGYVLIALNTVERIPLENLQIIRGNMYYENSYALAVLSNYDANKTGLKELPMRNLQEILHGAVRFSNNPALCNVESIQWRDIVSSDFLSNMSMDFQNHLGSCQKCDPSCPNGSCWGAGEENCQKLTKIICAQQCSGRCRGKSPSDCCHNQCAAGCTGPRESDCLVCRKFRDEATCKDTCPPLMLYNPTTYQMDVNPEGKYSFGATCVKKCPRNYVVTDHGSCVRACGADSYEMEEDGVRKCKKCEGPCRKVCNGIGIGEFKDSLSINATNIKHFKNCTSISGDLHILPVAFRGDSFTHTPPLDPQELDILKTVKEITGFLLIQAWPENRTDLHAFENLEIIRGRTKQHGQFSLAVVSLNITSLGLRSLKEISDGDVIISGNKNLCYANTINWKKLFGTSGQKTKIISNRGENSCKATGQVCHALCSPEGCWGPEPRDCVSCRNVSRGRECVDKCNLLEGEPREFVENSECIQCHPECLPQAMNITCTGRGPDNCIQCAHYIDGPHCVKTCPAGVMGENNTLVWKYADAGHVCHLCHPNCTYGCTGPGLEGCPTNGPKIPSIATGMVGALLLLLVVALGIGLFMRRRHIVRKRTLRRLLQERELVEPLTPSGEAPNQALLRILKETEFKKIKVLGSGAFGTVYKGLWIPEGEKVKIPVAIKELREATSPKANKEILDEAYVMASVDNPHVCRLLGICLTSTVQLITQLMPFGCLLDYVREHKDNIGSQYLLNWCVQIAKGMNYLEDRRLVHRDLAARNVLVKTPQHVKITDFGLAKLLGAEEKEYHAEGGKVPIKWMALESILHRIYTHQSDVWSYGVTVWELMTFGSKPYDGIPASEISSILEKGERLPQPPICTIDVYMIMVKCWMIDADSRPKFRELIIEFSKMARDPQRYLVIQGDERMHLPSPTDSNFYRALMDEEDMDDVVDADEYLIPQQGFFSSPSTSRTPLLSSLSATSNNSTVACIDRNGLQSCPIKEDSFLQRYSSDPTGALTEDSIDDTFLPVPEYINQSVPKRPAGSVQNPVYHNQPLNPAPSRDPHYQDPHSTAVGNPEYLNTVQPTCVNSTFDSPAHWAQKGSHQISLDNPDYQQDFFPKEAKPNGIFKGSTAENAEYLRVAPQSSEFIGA
Protocol: as §1

P70S6K = P70S6K (Homo sapiens, UniProt P23443); assay: P70S6K kinase assay; type: biochemical; conditions: 10 μM compound; read-out: P70S6K percent of inhibition
P70S6K, sequence (P23443 whole entry): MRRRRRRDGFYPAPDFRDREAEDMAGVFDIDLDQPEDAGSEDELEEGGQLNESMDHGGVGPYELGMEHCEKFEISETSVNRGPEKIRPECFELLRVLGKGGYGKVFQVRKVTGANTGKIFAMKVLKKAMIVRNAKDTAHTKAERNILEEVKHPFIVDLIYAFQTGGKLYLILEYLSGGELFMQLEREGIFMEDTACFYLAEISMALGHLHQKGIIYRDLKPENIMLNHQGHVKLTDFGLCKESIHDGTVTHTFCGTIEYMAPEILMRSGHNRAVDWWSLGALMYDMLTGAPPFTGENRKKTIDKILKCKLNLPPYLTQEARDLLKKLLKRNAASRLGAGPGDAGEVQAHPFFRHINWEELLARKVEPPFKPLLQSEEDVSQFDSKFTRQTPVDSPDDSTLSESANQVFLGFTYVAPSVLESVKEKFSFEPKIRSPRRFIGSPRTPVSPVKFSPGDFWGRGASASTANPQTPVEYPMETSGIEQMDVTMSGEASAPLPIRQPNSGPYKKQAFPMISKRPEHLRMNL
Protocol: as §1

cMet = cMet (Homo sapiens, UniProt P08581); assay: cMet kinase assay; type: biochemical; conditions: 10 μM compound; read-out: cMet percent of inhibition
Protocol: as §1

P56Lck = P56Lck (Homo sapiens, UniProt P06239); assay: P56Lck kinase assay; type: biochemical; conditions: 10 μM compound; read-out: P56Lck percent of inhibition
Protocol: as §1

AKT1/PKBa = AKT1/PKBa (Homo sapiens, UniProt P31749); assay: AKT1/PKBa kinase assay; type: biochemical; conditions: 10 μM compound; read-out: AKT1/PKBa percent of inhibition
Protocol: as §1

RSK1 = RSK1 (Homo sapiens, UniProt Q15418); assay: RSK1 kinase assay; type: biochemical; conditions: 10 μM compound; read-out: RSK1 percent of inhibition
Protocol: as §1

c-Src = c-Src (Homo sapiens, UniProt P12931); assay: c-Src kinase assay; type: biochemical; conditions: 10 μM compound; read-out: c-Src percent of inhibition
Protocol: as §1

Abl = Abl (Homo sapiens, UniProt P00519); assay: Abl kinase assay; type: biochemical; conditions: 10 μM compound; read-out: Abl percent of inhibition
Protocol: as §1

PDGFR-beta = PDGFR-beta (Homo sapiens, UniProt P09619); assay: PDGFR-beta kinase assay; type: biochemical; conditions: 10 μM compound; read-out: PDGFR-beta percent of inhibition
Protocol: as §1

Jnk1a1 = Jnk1a1 (Homo sapiens, UniProt P45983); assay: Jnk1a1 kinase assay; type: biochemical; conditions: 10 μM compound; read-out: Jnk1a1 percent of inhibition
Jnk1a1, sequence (P45983 1-384 isoform P45983-2): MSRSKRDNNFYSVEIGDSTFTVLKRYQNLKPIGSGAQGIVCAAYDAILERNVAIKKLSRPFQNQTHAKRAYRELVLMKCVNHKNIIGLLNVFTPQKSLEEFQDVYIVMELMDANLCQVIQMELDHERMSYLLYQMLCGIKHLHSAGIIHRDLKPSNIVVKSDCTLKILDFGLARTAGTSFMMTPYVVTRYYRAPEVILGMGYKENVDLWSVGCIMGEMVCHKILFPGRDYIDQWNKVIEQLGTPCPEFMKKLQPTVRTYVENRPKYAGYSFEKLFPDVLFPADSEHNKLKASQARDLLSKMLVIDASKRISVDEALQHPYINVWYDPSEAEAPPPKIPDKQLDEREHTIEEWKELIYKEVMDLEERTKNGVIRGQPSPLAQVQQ
Protocol: as §1

IKK-beta = molecular target: T1, IKK-beta (Homo sapiens, UniProt O14920); assay: IKK-beta kinase assay; type: biochemical; conditions: 10 μM compound; read-out: IKK-beta percent of inhibition
T1 sequence (O14920 1-756): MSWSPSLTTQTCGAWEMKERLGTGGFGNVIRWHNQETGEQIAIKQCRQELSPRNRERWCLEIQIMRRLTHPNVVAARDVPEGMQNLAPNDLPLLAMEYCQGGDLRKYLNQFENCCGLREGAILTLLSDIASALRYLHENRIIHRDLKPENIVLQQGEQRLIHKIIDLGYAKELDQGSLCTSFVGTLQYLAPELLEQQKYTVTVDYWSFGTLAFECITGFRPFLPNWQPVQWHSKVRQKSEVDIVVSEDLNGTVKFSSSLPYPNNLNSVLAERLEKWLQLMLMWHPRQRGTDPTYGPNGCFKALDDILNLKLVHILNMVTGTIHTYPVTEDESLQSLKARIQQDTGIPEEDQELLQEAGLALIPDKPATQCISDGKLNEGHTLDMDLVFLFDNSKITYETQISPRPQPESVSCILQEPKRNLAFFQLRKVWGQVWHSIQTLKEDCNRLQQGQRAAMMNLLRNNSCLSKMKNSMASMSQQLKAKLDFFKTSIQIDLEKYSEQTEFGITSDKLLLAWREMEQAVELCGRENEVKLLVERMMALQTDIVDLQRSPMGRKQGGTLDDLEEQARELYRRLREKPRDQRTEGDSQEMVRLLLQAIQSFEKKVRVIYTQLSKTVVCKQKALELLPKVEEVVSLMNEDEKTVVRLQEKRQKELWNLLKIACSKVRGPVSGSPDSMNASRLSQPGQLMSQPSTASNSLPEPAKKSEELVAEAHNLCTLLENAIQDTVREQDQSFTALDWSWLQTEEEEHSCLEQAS
Protocol: as §1

c-Raf = c-Raf (Homo sapiens, UniProt P04049); assay: c-Raf kinase assay; type: biochemical; conditions: 10 μM compound; read-out: c-Raf percent of inhibition
c-Raf, sequence (P04049 whole entry, species assumed): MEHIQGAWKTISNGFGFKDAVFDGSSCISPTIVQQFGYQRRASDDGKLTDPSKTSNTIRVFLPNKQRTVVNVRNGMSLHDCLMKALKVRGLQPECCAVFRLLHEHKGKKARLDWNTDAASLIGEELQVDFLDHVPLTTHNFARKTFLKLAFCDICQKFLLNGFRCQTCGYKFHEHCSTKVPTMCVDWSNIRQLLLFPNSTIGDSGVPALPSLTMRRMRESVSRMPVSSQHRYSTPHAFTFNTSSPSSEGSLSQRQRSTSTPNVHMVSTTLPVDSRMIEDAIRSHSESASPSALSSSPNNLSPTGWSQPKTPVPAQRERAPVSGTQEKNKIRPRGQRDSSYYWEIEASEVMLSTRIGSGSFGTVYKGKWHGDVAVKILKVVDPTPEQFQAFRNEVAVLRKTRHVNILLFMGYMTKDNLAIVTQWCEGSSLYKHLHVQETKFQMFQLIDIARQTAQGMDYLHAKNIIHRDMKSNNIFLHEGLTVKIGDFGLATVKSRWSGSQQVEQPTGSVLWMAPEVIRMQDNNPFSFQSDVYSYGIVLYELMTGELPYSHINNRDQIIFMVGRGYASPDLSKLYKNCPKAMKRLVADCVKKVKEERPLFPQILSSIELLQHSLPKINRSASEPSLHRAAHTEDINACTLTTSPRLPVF
Protocol: as §1

Kit = Kit (Homo sapiens, UniProt P10721); assay: Kit kinase assay; type: biochemical; conditions: 10 μM compound; read-out: Kit percent of inhibition
Protocol: as §1

GSK-3beta = GSK-3beta (Homo sapiens, UniProt P49841); assay: GSK-3beta kinase assay; type: biochemical; conditions: 10 μM compound; read-out: GSK-3beta percent of inhibition
GSK-3beta, sequence (P49841 whole entry, species assumed): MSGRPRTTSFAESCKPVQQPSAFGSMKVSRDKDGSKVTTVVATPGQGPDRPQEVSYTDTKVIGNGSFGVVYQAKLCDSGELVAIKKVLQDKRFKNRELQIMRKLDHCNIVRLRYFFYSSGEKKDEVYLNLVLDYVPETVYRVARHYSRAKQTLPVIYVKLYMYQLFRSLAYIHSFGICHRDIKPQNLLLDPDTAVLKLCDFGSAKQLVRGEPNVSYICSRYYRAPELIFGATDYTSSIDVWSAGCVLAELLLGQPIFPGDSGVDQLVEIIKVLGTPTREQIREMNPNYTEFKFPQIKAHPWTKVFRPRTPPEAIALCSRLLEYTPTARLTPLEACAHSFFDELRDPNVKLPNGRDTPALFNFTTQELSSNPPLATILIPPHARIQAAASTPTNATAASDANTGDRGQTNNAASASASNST
Protocol: as §1

CK1-alpha = CK1-alpha (Homo sapiens, UniProt P48729); assay: CK1-alpha kinase assay; type: biochemical; conditions: 10 μM compound; read-out: CK1-alpha percent of inhibition
Protocol: as §1

ROCK2, sequence (O75116 whole entry, species assumed): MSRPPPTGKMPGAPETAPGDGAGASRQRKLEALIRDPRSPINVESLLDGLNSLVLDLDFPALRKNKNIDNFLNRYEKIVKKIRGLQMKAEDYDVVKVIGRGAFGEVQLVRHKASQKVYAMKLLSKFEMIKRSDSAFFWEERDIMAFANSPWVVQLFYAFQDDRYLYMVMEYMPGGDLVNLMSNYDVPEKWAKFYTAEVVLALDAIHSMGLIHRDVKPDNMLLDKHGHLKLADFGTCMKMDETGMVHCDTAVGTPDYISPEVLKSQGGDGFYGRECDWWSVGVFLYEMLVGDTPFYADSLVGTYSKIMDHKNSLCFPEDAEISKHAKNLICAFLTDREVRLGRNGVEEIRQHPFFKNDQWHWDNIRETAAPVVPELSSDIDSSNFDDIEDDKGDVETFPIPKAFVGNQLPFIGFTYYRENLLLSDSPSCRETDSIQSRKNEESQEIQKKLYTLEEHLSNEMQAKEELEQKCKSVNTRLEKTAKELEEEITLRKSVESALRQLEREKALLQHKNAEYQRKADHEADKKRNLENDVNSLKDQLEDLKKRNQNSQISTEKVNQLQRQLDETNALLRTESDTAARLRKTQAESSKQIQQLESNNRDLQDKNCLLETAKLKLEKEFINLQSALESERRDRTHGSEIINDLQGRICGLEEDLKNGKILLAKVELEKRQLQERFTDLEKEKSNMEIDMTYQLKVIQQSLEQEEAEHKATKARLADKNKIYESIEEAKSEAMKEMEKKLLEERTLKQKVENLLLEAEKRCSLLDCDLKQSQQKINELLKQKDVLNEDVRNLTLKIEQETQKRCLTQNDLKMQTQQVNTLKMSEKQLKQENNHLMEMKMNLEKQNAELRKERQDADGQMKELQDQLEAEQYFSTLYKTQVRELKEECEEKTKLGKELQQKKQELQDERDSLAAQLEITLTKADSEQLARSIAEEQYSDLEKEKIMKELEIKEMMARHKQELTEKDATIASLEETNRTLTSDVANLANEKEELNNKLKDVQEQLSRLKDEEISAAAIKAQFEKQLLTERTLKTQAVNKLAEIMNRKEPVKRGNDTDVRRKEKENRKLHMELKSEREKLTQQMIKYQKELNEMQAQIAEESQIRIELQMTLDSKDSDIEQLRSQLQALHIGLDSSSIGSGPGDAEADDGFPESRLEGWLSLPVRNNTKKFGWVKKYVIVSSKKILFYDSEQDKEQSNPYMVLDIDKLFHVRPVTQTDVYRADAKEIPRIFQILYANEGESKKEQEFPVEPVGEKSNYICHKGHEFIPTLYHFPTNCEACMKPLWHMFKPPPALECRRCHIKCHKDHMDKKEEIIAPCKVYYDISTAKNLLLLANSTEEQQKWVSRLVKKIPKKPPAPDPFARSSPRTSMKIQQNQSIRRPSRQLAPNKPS

SMILES	inhibition at 10 µM (ROCK2)	inhibition at 10 µM (InsR)	inhibition at 10 µM (CDK2/CycA)	inhibition at 10 µM (MAPK-ERK1)	inhibition at 10 µM (SRPK1)	inhibition at 10 µM (EGFR)	inhibition at 10 µM (P70S6K)	inhibition at 10 µM (cMet)	inhibition at 10 µM (P56Lck)	inhibition at 10 µM (AKT1/PKBa)	inhibition at 10 µM (RSK1)	inhibition at 10 µM (c-Src)	inhibition at 10 µM (Abl)	inhibition at 10 µM (PDGFR-beta)	inhibition at 10 µM (Jnk1a1)	inhibition at 10 µM (IKK-beta)	melting point	inhibition at 10 µM (c-Raf)	inhibition at 10 µM (Kit)	inhibition at 10 µM (GSK-3beta)	also measured
FC(F)(F)c1cccc(Nc2nc(C3CC3)nc3sc4c(c23)CCCC4)c1 [Compound 11, (2-Cyclopropyl-5,6,7,8-tetrahydro-benzo[4,5]thieno[2,3-d]pyrimidin-4-yl)-(3-trifluoromethyl-phenyl)-amine]	6%	-6%	-5%	4%	-5%	4%	20%	3%	-7%	1%	-14%	8%	0%	-4%	-3%	4%	204.8 °C	2%	-1%	-3%	inhibition at 10 µM (CK1-alpha): -1%
Nc1cccc(Nc2nc(C3CC3)nc3sc4c(c23)CCCC4)c1 [Compound 12, N-(2-Cyclopropyl-5,6,7,8-tetrahydro-benzo[4,5]thieno[2,3-d]pyrimidin-4-yl)-benzene-1,3-diamine]	5%	22%	-8%	0%	21%	5%	9%	-6%	9%	-13%	0%	4%	-13%	-11%	-5%	9%	185.9 °C	-3%	-8%	0%	inhibition at 10 µM (CK1-alpha): -3%
O=[N+]([O-])c1cccc(Nc2nc(C3CC3)nc3sc4c(c23)CCCC4)c1 [Compound 13, (2-Cyclopropyl-5,6,7,8-tetrahydro-benzo[4,5]thieno[2,3-d]pyrimidin-4-yl)-(3-nitro-phenyl)-amine]	3%	9%	-18%	-6%	11%	26%	9%	-4%	12%	-2%	-18%	1%	-15%	-14%	-9%	-9%	211.7 °C	-7%	-12%	-6%	inhibition at 10 µM (CK1-alpha): 0%
N#Cc1cccc(Nc2nc(C3CC3)nc3sc4c(c23)CCCC4)c1 [Compound 14, 3-(2-Cyclopropyl-5,6,7,8-tetrahydro-benzo[4,5]thieno[2,3-d]pyrimidin-4-ylamino)-benzonitrile]	12%	-3%	-3%	-4%	11%	72%	2%	-7%	6%	-1%	-4%	5%	-3%	-4%	-4%	-6%	176.3 °C	-5%	-12%	2%	inhibition at 10 µM (CK1-alpha): 0%
COc1cccc(Nc2nc(C3CC3)nc3sc4c(c23)CCCC4)c1 [Compound 15, (2-Cyclopropyl-5,6,7,8-tetrahydro-benzo[4,5]thieno[2,3-d]pyrimidin-4-yl)-(3-methoxy-phenyl)-amine]	9%	23%	-14%	6%	12%	9%	4%	-6%	-5%	-9%	8%	5%	12%	-7%	-3%	12%	186.7 °C	-13%	1%	-6%	inhibition at 10 µM (CK1-alpha): 5%
